Test systems include UACC-257 melanoma; U251 CNS; TK-10 renal; HCC-2998 colon; SNB-19 CNS; SF-268 CNS; MDA-MB-231 breast; IGROV1 ovarian; HCT-15 colon; A498 renal.
Test in all cases: inhibition of tumour cell growth, NCI panel, 48 h

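Growth conditions: 96-well plates. Treatment: test compound, 48 hours, 5 concentrations. Analysis: linear interpolation between bracketing concentrations; unreached endpoints set to highest concentration. The concentration for 50% growth inhibition is given as GI50. TGI: total growth inhibition.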 Bounds are passed on as bounds.

Turning to `COc1ccc(/C=C(/C(=O)N2CCN(c3ccc(C)cc3)CC2)c2cc(OC)c(OC)c(OC)c2)cc1N`, the GI50 in the experiment on UACC-257 melanoma was > 87.3 µM; in the experiment with U251 CNS, 397 nM; in the experiment on TK-10 renal it was 4.77 µM; in the experiment with HCC-2998 colon it was 376 nM; in the experiment on SNB-19 CNS, 426 nM; with SF-268 CNS, 430 nM. The GI50 was 360 nM in the experiment with MDA-MB-231 breast, 304 nM with IGROV1 ovarian, 337 nM in the experiment on HCT-15 colon and 57.1 nM in the experiment on A498 renal. The TGI in the experiment on UACC-257 melanoma, in the experiment on U251 CNS, in the experiment with TK-10 renal, in the experiment on HCC-2998 colon, in the experiment with SNB-19 CNS and in the experiment on SF-268 CNS was > 100 µM each time. In addition, the TGI is > 100 µM with MDA-MB-231 breast, > 100 µM in the experiment with IGROV1 ovarian, > 100 µM in the experiment on HCT-15 colon and 2.3 µM with A498 renal.

Regarding `O=C1c2cccc3c([N+](=O)[O-])ccc(c23)C(=O)N1CCCCl`, the GI50 in the experiment with UACC-257 melanoma was 7.14 µM; in the experiment on U251 CNS it was > 10000 nM; in the experiment with TK-10 renal, > 10 µM; with HCC-2998 colon, 5850 nM; in the experiment on SNB-19 CNS, > 10000 nM; with SF-268 CNS, 3170 nM. The GI50 in the experiment on MDA-MB-231 breast was > 10000 nM; in the experiment with IGROV1 ovarian, 1900 nM; in the experiment on HCT-15 colon, 5010 nM; in the experiment with A498 renal, > 10000 nM. Further, the TGI with UACC-257 melanoma, with U251 CNS, in the experiment with TK-10 renal, in the experiment on HCC-2998 colon, with SNB-19 CNS and in the experiment with SF-268 CNS was > 10 µM throughout. Besides, the TGI in the experiment with MDA-MB-231 breast was > 10 µM; in the experiment on IGROV1 ovarian, 5 µM; in the experiment on HCT-15 colon, > 10 µM; in the experiment on A498 renal, > 10 µM.

With `COc1ccc2c(c1)[n+]([O-])c(/C(C)=N/NC(N)=S)c(C)[n+]2[O-]`, the TGI was > 100 µM in the experiment on UACC-257 melanoma; > 100 µM in the experiment on U251 CNS; > 100 µM with TK-10 renal; > 66.7 µM with HCC-2998 colon; > 100 µM in the experiment with SNB-19 CNS; > 100 µM in the experiment on SF-268 CNS. For the same compound, the TGI in the experiment with MDA-MB-231 breast, in the experiment with IGROV1 ovarian, with HCT-15 colon and in the experiment on A498 renal was > 100 µM each time.

`COc1ccc(-c2c(-c3cc4c(c(OC)c3OC)OCO4)noc2N)cc1`: the GI50 with UACC-257 melanoma is 0.458 µM; in the experiment on U251 CNS, 417 nM; with TK-10 renal, 0.343 µM; with HCC-2998 colon, 575 nM; in the experiment with SNB-19 CNS it was 661 nM; in the experiment with SF-268 CNS it was 745 nM. For the same compound, the GI50 was 2320 nM in the experiment with MDA-MB-231 breast, 1100 nM in the experiment with IGROV1 ovarian, 391 nM in the experiment with HCT-15 colon and 374 nM with A498 renal. The TGI in the experiment with UACC-257 melanoma was > 100 µM; in the experiment on U251 CNS it was > 100 µM; in the experiment with TK-10 renal, > 100 µM; in the experiment on HCC-2998 colon, 6.96 µM; in the experiment on SNB-19 CNS, > 100 µM; in the experiment on SF-268 CNS, > 95.8 µM. Besides, the TGI is > 62.9 µM in the experiment on MDA-MB-231 breast, > 100 µM with IGROV1 ovarian, > 100 µM in the experiment with HCT-15 colon and > 100 µM in the experiment on A498 renal.

As to `CS(=O)(=O)c1nccc(-c2c(-c3cccc(OCc4ccccc4)c3)nc3sccn23)n1`, the GI50 in the experiment on UACC-257 melanoma is 10.4 µM; in the experiment with U251 CNS it was 19600 nM; in the experiment on TK-10 renal, 53.2 µM; in the experiment with HCC-2998 colon, 3490 nM; in the experiment with SNB-19 CNS, > 43800 nM; with SF-268 CNS, 19100 nM. In addition, the GI50 was 16200 nM with MDA-MB-231 breast, 10300 nM with IGROV1 ovarian, 12000 nM with HCT-15 colon and 13500 nM in the experiment with A498 renal. Also, the TGI in the experiment on UACC-257 melanoma is 32.5 µM; in the experiment on U251 CNS, > 100 µM; in the experiment with TK-10 renal, > 100 µM; in the experiment with HCC-2998 colon, 8.36 µM; in the experiment with SNB-19 CNS it was > 100 µM; with SF-268 CNS it was > 100 µM. In addition, the TGI is > 100 µM with MDA-MB-231 breast, > 100 µM in the experiment with IGROV1 ovarian, > 100 µM with HCT-15 colon and > 89.9 µM with A498 renal.

For `COc1ccc(C(=O)OC2C(OC3C(O)COC(O[C@H]4C[C@H]5[C@@H]6CC=C7C[C@@H](O)CC[C@]7(C)[C@H]6CC[C@]5(C)[C@H]4[C@H](C)C(=O)CCC(C)C)C3OC(=O)C(C)C)OCC(O)C2O)cc1` (some centres undefined), the GI50 in the experiment on UACC-257 melanoma is 0.0342 µM; in the experiment on U251 CNS it was 3.81 nM; in the experiment with TK-10 renal it was 0.411 µM; with HCC-2998 colon, 1880 nM; in the experiment with SNB-19 CNS it was 33.6 nM; in the experiment on SF-268 CNS, 19.5 nM. In addition, the GI50 with MDA-MB-231 breast is 101 nM; with IGROV1 ovarian, 21.9 nM; in the experiment with HCT-15 colon it was 218 nM; with A498 renal it was 3.95 nM. Besides, the TGI in the experiment with UACC-257 melanoma is 0.114 µM; in the experiment on U251 CNS, 4.16 µM; in the experiment on TK-10 renal, 6.24 µM; in the experiment on HCC-2998 colon, 5.79 µM; in the experiment on SNB-19 CNS it was 3.97 µM; with SF-268 CNS, 3.33 µM. Besides, the TGI with MDA-MB-231 breast came out at 4.65 µM; in the experiment on IGROV1 ovarian, 4.22 µM; in the experiment on HCT-15 colon it was 3.92 µM; with A498 renal, 0.0161 µM.

On to `COc1ccc(Nc2[nH]n(C3=Nc4ccccc4Sc4ccccc43)c(=O)c2C#N)cc1`, for which the GI50 in the experiment on UACC-257 melanoma was 1.13 µM; in the experiment with U251 CNS it was 2500 nM; with TK-10 renal, 3.81 µM; with HCC-2998 colon it was 2320 nM; in the experiment with SNB-19 CNS it was 3530 nM; with SF-268 CNS, 2370 nM. Moreover, the GI50 in the experiment with MDA-MB-231 breast is 1390 nM; with IGROV1 ovarian it was 2790 nM; in the experiment on HCT-15 colon it was 1870 nM; in the experiment on A498 renal, 1390 nM. Moreover, the TGI with UACC-257 melanoma was 7.03 µM; in the experiment on U251 CNS it was 43.3 µM; with TK-10 renal, 41 µM; in the experiment on HCC-2998 colon it was 10.5 µM; with SNB-19 CNS, > 100 µM; with SF-268 CNS, 34.3 µM. Moreover, the TGI in the experiment on MDA-MB-231 breast is 11.9 µM; in the experiment on IGROV1 ovarian it was > 100 µM; in the experiment with HCT-15 colon it was 34.1 µM; with A498 renal, 8.01 µM.

Consider `Cc1ccccc1NC(=O)N/C(N)=N/c1nc(C)c(C)s1`, for which the GI50 in the experiment with UACC-257 melanoma is > 100 µM; in the experiment with U251 CNS it was 305 nM; with HCC-2998 colon, 712 nM; in the experiment with SNB-19 CNS, 283 nM; in the experiment on SF-268 CNS, 15900 nM; in the experiment on MDA-MB-231 breast, 1520 nM. Moreover, the GI50 in the experiment on IGROV1 ovarian was 350 nM; in the experiment with HCT-15 colon, 64.7 nM; in the experiment with A498 renal it was 125 nM. Besides, the TGI in the experiment on UACC-257 melanoma is > 100 µM; with U251 CNS, > 46.6 µM; in the experiment on TK-10 renal, > 100 µM; in the experiment on HCC-2998 colon it was > 100 µM; in the experiment on SNB-19 CNS, 52.7 µM; with SF-268 CNS, > 100 µM. In addition, the TGI in the experiment with MDA-MB-231 breast is > 100 µM; with IGROV1 ovarian, > 100 µM; in the experiment with HCT-15 colon, > 100 µM; in the experiment on A498 renal, 0.803 µM.

The record behind these values is PubChem BioAssay (NCI).
